What was measured:
[1] = tested on: A30P, E46K, A53T, S129D, S129A and DQ/AA variants of α-synuclein in MES23.5 cells; test: Sandwich ELISA of mutant α-synuclein variants in MES23.5 cells co-transfected with CTSD cDNA; assay type: cell-based, human; conditions: cathepsin D cDNA 5 μg/10 cm dish
Experimental: Sera from six rabbits were raised and affinity-purified at Open Biosystems, Inc. (openbiosystems.com) against recombinant, full-length human αS. Recombinant αS had been HPLC- and MS-characterized and subjected to amino acid composition and protein concentration analyses. For ELISA, 384-well MaxiSorp plates (Nunc, Inc) were coated with 50 μl/well capturing polyclonal Ab (hSA-2) diluted in coating buffer (NaHCO3 with 0.2% NaN3, pH 9.6). Following washes with PBS/0.05% Tween-20 (PBS-T), plates were blocked for 2 hours at 37° C. in blocking buffer (1.125% fish skin gelatin; PBS-T). After 4 washes, samples were loaded and incubated at 4° C. for 12 hours. Biotinylated Syn-1 mAb (as the assaying Ab) was generated using 200 μg Sulfo-NHS-LC Biotin (Pierce), diluted in blocking buffer and added to the plate for 2 hours at 37° C. Following 4 washes, ExtrAvidin phosphatase (Sigma) diluted in blocking buffer was applied for 1 hr at 37° C. Color development was carried out by using Fast-p-Nitrophenyl Phosphate (Sigma) and monitored kinetically at OD 405 nm every 5 minutes for up to 60 minutes.
To examine whether Cathepsin D could also reduce the levels of missense mutation-carrying αS proteins, MES23.5 cells were transfected with low amounts (0.5 μg/10 cm dish) of SNCA cDNA encoding either the A30P, E46K or A53T variants of α-synuclein which are linked to familial Parkinson Disease in humans, as well as a S129D and a S129A mutant. Phosphorylation of αS at the Serine 129 residue is known to be a pathological hallmark of αS aggregates in vivo (Anderson J et al., 2006, J Biol Chem, 281:29739-29752). Mutation of a Ser residue to Asp is known in the art to mimic sustained, serine-based phosphorylation. The S129A mutant, a phosphorylation-incompetent mutant of αS, was also included for comparison.
As shown in the bar graph of FIG. 7, the co-expression of Cathepsin D-encoding CTSD cDNA (5 μg/10 cm dish) with either A30P, E46K, A53T, S129D, or S129A αS caused a similar degree reduction in αS levels for all αS proteins examined, when compared to their co-expression with empty vector DNA. When comparing the changes in α-synuclein steady-state to well-characterized levels of recombinant α-synuclein protein that was loaded in parallel, it was estimated that cathepsin D over-expression (at a cDNA concentration of 5 μg/10 cm dish) led to intracellular α-synuclein levels that were 23.98+/−3.57%, 33.08+/−18.51%, 39.21+/−14.63%, 34.84+/−11.36% and 34.31+/−13.39% of cognate control levels, for A30P, E46K, A53T, S129D, or S129A αS polypeptides, respectively (n=2 (−3) from 2-3 independent experiments).
Of note, residues D98 and Q99 of αS represent the motif by which αS is recognized by the Lamp2a receptor during chaperone mediated autophagy (CMA); Cuervo et al, 2004, Science, vol 305, pp 1292-1295). To investigate the importance of this motif in the αS-lowering action induced by cathepsin D, MES 23.5 cells were also transfected with a cDNA (0.5 μg/10 cm dish) encoding a mutant αS variant, where the D98 and Q99 residues had both been changed to Alanine (A) by site-directed mutagenesis (i.e., DQ/AA-variant of αS). When comparing the changes in the DQ/AA-αS steady-state to well-characterized levels of recombinant α-synuclein protein that were loaded in parallel, it was estimated that cathepsin D over-expression (5 μg/10 cm dish) led to intracellular DQ/AA αS levels that were 22.14+/−5.32% of the vector control levels, (n=3, from 3 independent experiments; not shown).

[2] = tested on: rat αS in MES23.5 cells; test: Sandwich ELISA of co-transfected rat αS in MES23.5 cells; assay type: cell-based; conditions: human Cathepsin D, same paradigm
[3] = tested on: α-synuclein protein in MES23.5 cells; test: Western blot of α-synuclein in co-transfected MES23.5 cells; assay type: cell-based, human; conditions: co-expression with αS for 24 hours; syn-1, 7071AP and hSA-2 antibodies
Experimental: Cells were transfected with 0, 0.25, 0.5, 1, 5, and 10 μg (per 10 cm dish) of plasmid. 24 hours later, cells were washed with Tris-buffered saline and lysed in 140 mM NaCl, 50 mM Tris-Hcl, pH 8.0, 1 mM EDTA, 0.5% Triton-X100, and 1× protease inhibitors. Lysates were centrifuged at 100,000×g for 30 min at 4° C.; the top 2/3 of supernatants were removed and frozen in siliconized tubes at −80° C. Samples were run on SDS/PAGE, using 1 mM DTT as the reducing agent. Expression of the αS protein was confirmed at 24 hours post-transfection by Western blotting, where cell lysates were probed with a monoclonal antibody against αS protein (syn-1 antibody, BD Transduction Labs).
MES23.5 cells were transfected with 0.5 μg αS-encoding SNCA cDNA per 10 cm dish plus either 1.25, 2.5 or 5 μg (low, medium, or high) GBA-encoding cDNA in the absence or presence of 5 μg of Prosaposin-encoding cDNA. All arms of the experiment were balanced up to a total of 10.5 μg cDNA per 10 cm dish using empty vector cDNA. The GBA- and Prosaposin-encoding cDNA plasmids under a CMV promoter, as well as the pCMV-XL5 empty vector were purchased from OriGene Technologies, Inc (clones had been fully sequence-verified after isolation and a maxiprep). 24 hours later, cells were lysed and probed for GBA and αS protein levels. The upper panel in of FIG. 2B3 is a representation of a Western Blot indicating expression of GBA protein in the absence and presence of co-transfected prosaposin. GBA was probed using the monoclonal antibody 8E4. GBA over-expression occurred in a slightly gene-dosage dependent way in the absence of prosaposin. In the presence of prosaposin over-expression, the GBA signal itself was decreased. […]

## cathepsin D: human lysosomal aspartyl protease expressed from CTSD cDNA plasmid under a CMV promoter
[1]; A30P αS
  intracellular α-synuclein level, % of cognate control levels: 23.98+/−3.57%
[1]; A53T αS
  intracellular α-synuclein level, % of cognate control levels: 39.21+/−14.63%
[1]; DQ/AA αS (D98A/Q99A), n=3
  intracellular DQ/AA αS level, % of vector control levels: 22.14+/−5.32%
[1]; E46K αS
  intracellular α-synuclein level, % of cognate control levels: 33.08+/−18.51%
[1]; S129A αS
  intracellular α-synuclein level, % of cognate control levels: 34.31+/−13.39%
[1]; S129D αS
  intracellular α-synuclein level, % of cognate control levels: 34.84+/−11.36%
[2]
  effect on level of co-transfected rat αS: able to lower the levels of co-transfected rat αS
[3]
  generation of lower or higher molecular weight αS species: did not lead to the generation of any visible lower or higher molecular weight species

Reference: patent US10213494B2, “Treatment of synucleinopathies” (The Brigham and Women's Hospital, Inc., priority 2007, dated 2019)
